The record followed here is patent US20240173432A1, “Compositions and Methods for Treatment of Myotonic Dystrophy Type 1 with CRISPR/SluCas9” (Vertex Pharmaceuticals Incorporated, priority 2021, published 2024).

One data set deals with CUG foci in primary DM1 patient myoblasts. Kind of data set: Dual-cut screening: FISH staining of CUG RNA foci. It is filed as cell-based, human. As to conditions: sgRNA pair; primary DM1 patient myoblasts; 3 μM DNA-PKi Compound 6 for 48 hours. The method, boiled down:
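SluCas9 RNPs (protein:sgRNA 1:3; 20 pmol SluCas9 + 60 pmol sgRNA per guide, paired 1:1) nucleofected into primary DM1 patient myoblasts, then DMSO or 3 μM DNA-PKi Compound 6 for 48 h. At 72 h post-nucleofection cells fixed, FISH-stained with Cy3-PNA(CAG)5 probe plus anti-MBNL1 and Hoechst; % CUG foci-free nuclei by high-content confocal imaging.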
For the substance “SluU10 + SluD73 (guide 1 CCCGTTGGAAGACTGAGTGCCC; guide 2 CCAAAACGTGGATTGGGGTTGT; guide RNA; listed as DNA, chemistry not fully specified)”, the “% of CUG foci free nuclei (DNA-PKi)” value was 88.46%.
With “SluU10 + SluD83 (guide 1 CCCGTTGGAAGACTGAGTGCCC; guide 2 GTGGGGACAGACAATAAATACC; guide RNA; listed as DNA, chemistry not fully specified)”, the “% of CUG foci free nuclei (DNA-PKi)” value amounted to 89.5%.
On to “SluU10 + SluD100 (guide 1 CCCGTTGGAAGACTGAGTGCCC; guide 2 GTCCAGAGCTTTGGGCAGATGG; guide RNA; listed as DNA, chemistry not fully specified)”, for which the “% of CUG foci free nuclei (DNA-PKi)” value came out at 88.24%.
The same measure, in the same setting: the figure for “SluU21 + SluD06 (guide 1 GCTCGGAGCGGTTGTGAACTGG; guide 2 CCAGGCTGAGGCCCTGACGTGG; guide RNA; listed as DNA, chemistry not fully specified)” is 88.47%; for “SluU21 + SluD14 (guide 1 GCTCGGAGCGGTTGTGAACTGG; guide 2 ATGGGCAAACTGCAGGCCTGGG; guide RNA; listed as DNA, chemistry not fully specified)” it is 89.6%.
The same measure, in the same setting: for “SluU21 + SluD18 (guide 1 GCTCGGAGCGGTTGTGAACTGG; guide 2 TGGAGGATGGAACACGGACGGC; guide RNA; listed as DNA, chemistry not fully specified)” the value was 89.21%; for “SluU21 + SluD32 (guide 1 GCTCGGAGCGGTTGTGAACTGG; guide 2 CTTGTGCATGACGCCCTGCTCT; guide RNA; listed as DNA, chemistry not fully specified)”, 88.76%; for “SluU21 + SluD34 (guide 1 GCTCGGAGCGGTTGTGAACTGG; guide 2 CGCGCCAGACGCTCCCCAGAGC; guide RNA; listed as DNA, chemistry not fully specified)”, 88.43%.

Staying with this data set, now noted: sgRNA pair; primary DM1 patient myoblasts; vehicle (DMSO).
Turning to “SluU10 + SluD73 (guide 1 CCCGTTGGAAGACTGAGTGCCC; guide 2 CCAAAACGTGGATTGGGGTTGT; guide RNA; listed as DNA, chemistry not fully specified)”, the “% of CUG foci free nuclei (Vehicle)” value worked out at 69.97%.
For “SluU10 + SluD83 (guide 1 CCCGTTGGAAGACTGAGTGCCC; guide 2 GTGGGGACAGACAATAAATACC; guide RNA; listed as DNA, chemistry not fully specified)”, the “% of CUG foci free nuclei (Vehicle)” value came out at 74.17%.
With “SluU10 + SluD100 (guide 1 CCCGTTGGAAGACTGAGTGCCC; guide 2 GTCCAGAGCTTTGGGCAGATGG; guide RNA; listed as DNA, chemistry not fully specified)”, the “% of CUG foci free nuclei (Vehicle)” value is given as 67.81%.
For the substance “SluU21 + SluD06 (guide 1 GCTCGGAGCGGTTGTGAACTGG; guide 2 CCAGGCTGAGGCCCTGACGTGG; guide RNA; listed as DNA, chemistry not fully specified)”, the “% of CUG foci free nuclei (Vehicle)” value was 48.27%.
On to “SluU21 + SluD14 (guide 1 GCTCGGAGCGGTTGTGAACTGG; guide 2 ATGGGCAAACTGCAGGCCTGGG; guide RNA; listed as DNA, chemistry not fully specified)”, for which the “% of CUG foci free nuclei (Vehicle)” value is listed as 61.25%.
On the same count and under the same terms, for “SluU21 + SluD18 (guide 1 GCTCGGAGCGGTTGTGAACTGG; guide 2 TGGAGGATGGAACACGGACGGC; guide RNA; listed as DNA, chemistry not fully specified)” the value was 54.26%; for “SluU21 + SluD32 (guide 1 GCTCGGAGCGGTTGTGAACTGG; guide 2 CTTGTGCATGACGCCCTGCTCT; guide RNA; listed as DNA, chemistry not fully specified)”, 52.71%; for “SluU21 + SluD34 (guide 1 GCTCGGAGCGGTTGTGAACTGG; guide 2 CGCGCCAGACGCTCCCCAGAGC; guide RNA; listed as DNA, chemistry not fully specified)”, 56.01%.

In a further data set the test system is CTG repeat in the 3′ UTR of human DMPK gene. The experiment in a line: Dual-cut screening: CTG repeat excision efficiency by loss-of-signal ddPCR. The class given is cell-based. Conditions: sgRNA pair; primary DM1 patient myoblasts; 3 μM DNA-PKi Compound 6 for 48 hours. The procedure: RNPs were assembled with recombinant SluCas9 protein and chemically modified sgRNAs at a ratio of 1:3 (protein:sgRNA). For SINGLE-cut screening, RNP complexes were assembled with 30 pmol of SluCas9 and 90 pmol of sgRNA in P5 Primary Cell Nucleofector Solution (Lonza). After incubation at room temperature for 20 minutes, 10 μL of RNP complex were mixed with two hundred thousand of primary myoblasts resuspended in 10 μL of P5 Nucleofector Solution. For DOUBLE-cut screening, RNP complexes were first assembled for individual sgRNAs with 20 pmol of SluCas9 protein and 60 pmol of sgRNAs in 5 μL of P5 Nucleofector Solution. After incubation at room temperature for 20 minutes, the two RNP complexes (one for upstream sgRNA and one for downstream sgRNA) were mixed at 1:1 ratio and then further mixed with two hundred thousand of primary myoblasts resuspended in 10 μL of P5 Nucleofector Solution.
The Nucleofector 96-well Shuttle System (Lonza) was used to deliver the SluCa9/sgRNA RNPs into primary DM1 patient myoblasts using the nucleofection program CM138. Following nucleofection, myoblasts from each well of nucleofection shuttle were split into six wells of the 96-well cell culture plate (Greiner, 655090) coated with matrigel. The first three wells were treated with DMSO for 48 hrs before changing to fresh myoblast growth medium, and the other three wells were treated with 3 μM of DNA-PKi Compound 6 for 48 hrs before changing to fresh myoblast growth medium. 72 hrs post nucleofection, two wells of DMSO-treated myoblasts and two wells of DNA-PKi-treated myoblasts from each nucleofection were harvested for genomic DNA extraction using the Kingfisher Flex purification system (Thermal Fisher), whereas one well of DMSO-treated myoblasts and one well of DNA-PKi-treated myoblasts were stained for RNA foci by FISH staining.
The primers and probes of ddPCR are designed using the online primer design software Primer3Plus (http://www.bioinformatics.nl/cgi-bin/primer3plus/primer3plus.cgi). In some embodiments, two target primers/probe sets were used to detect CTG repeat excision, and a reference primers/probe set were used to amplify a region located in Exon 1 of human DMPK gene and to serve as a reference control for the target sets. The 24 μL of ddPCR reaction consists of 12 μL of Supermix for Probes (no dUTP) (Bio-Rad Laboratories), 1 μL of Reference primers mix (21.6 μM), 1 μL of Reference probe (6 μM), 1 μL of Target primers mix (21.6 μM), 1 μL of Target probe (6 μM), and 8 μL of sample genomic DNA. Droplets were generated using probe oil with the QX200 Droplet Generator (Bio-Rad Laboratories). Droplets were transferred to a 96-well PCR plate, sealed and cycled in a C1000 deep well Thermocycler (Bio-Rad Laboratories) under the following cycling protocol: 1 cycle at 95° C. for 10 min; 40 cycles of 94° C. for 30 see, and 58° C. for 1 min; 1 cycle at 98° C. for 10 min (for enzyme inactivation). The cycled plate was then transferred and read in the FAM and HEX channels using the Bio-Rad QX200 Droplet Reader (Bio-Rad Laboratories). ddPCR analysis is performed with the Bio-Rad QuantaSoft Pro Software.
To assess the efficiency of SluCas9 sgRNA pairs for inducing CTG repeat excision, Dual-cut screening was performed in which individual SluCas9 sgRNAs and recombinant SluCas9 protein were assembled into ribonucleoprotein (RNP) and delivered into primary DM1 patient myoblasts. Nucleofected myoblasts were treated with either DMSO (vehicle) or 3 μM of DNA-dependent Protein Kinase Inhibitor (DNA-PKi) Compound 6 for 48 hours. 72 hours post-nucleofection, myoblasts were subjected to either genomic DNA isolation or RNA foci staining by fluorescence in situ hybridization (FISH).
CRISPR repeat excision efficiency was assessed for each of the 88 pairs (FIG. 8A-B and Table 5). CTG repeat excision efficiency percentages are shown for vehicle (DMSO; white bars) and with DNA-PKi (black bars) (FIG. 8B and Table 5).
Consider “SluU10 + SluD73 (guide 1 CCCGTTGGAAGACTGAGTGCCC; guide 2 CCAAAACGTGGATTGGGGTTGT; guide RNA; listed as DNA, chemistry not fully specified)”, for which the “Excision efficiency (by ddPCR)” value is reported as 64.77.
Regarding “SluU10 + SluD83 (guide 1 CCCGTTGGAAGACTGAGTGCCC; guide 2 GTGGGGACAGACAATAAATACC; guide RNA; listed as DNA, chemistry not fully specified)”, the “Excision efficiency (by ddPCR)” value came out at 68.8.
“SluU10 + SluD100 (guide 1 CCCGTTGGAAGACTGAGTGCCC; guide 2 GTCCAGAGCTTTGGGCAGATGG; guide RNA; listed as DNA, chemistry not fully specified)”: the “Excision efficiency (by ddPCR)” value is 64.25.
Take “SluU21 + SluD06 (guide 1 GCTCGGAGCGGTTGTGAACTGG; guide 2 CCAGGCTGAGGCCCTGACGTGG; guide RNA; listed as DNA, chemistry not fully specified)”: the “Excision efficiency (by ddPCR)” value is 66.01.
On the same count and under the same terms, the figure for “SluU21 + SluD14 (guide 1 GCTCGGAGCGGTTGTGAACTGG; guide 2 ATGGGCAAACTGCAGGCCTGGG; guide RNA; listed as DNA, chemistry not fully specified)” is 63.05; for “SluU21 + SluD18 (guide 1 GCTCGGAGCGGTTGTGAACTGG; guide 2 TGGAGGATGGAACACGGACGGC; guide RNA; listed as DNA, chemistry not fully specified)” it is 65.52.
For “SluU21 + SluD32 (guide 1 GCTCGGAGCGGTTGTGAACTGG; guide 2 CTTGTGCATGACGCCCTGCTCT; guide RNA; listed as DNA, chemistry not fully specified)”, the “Excision efficiency (by ddPCR)” value is recorded as 70.09.
Still for that read-out and setting: for “SluU21 + SluD34 (guide 1 GCTCGGAGCGGTTGTGAACTGG; guide 2 CGCGCCAGACGCTCCCCAGAGC; guide RNA; listed as DNA, chemistry not fully specified)” the value was 61.75.

Still in this data set, the particulars now being: sgRNA pair; primary DM1 patient myoblasts; vehicle (DMSO).
On to “SluU10 + SluD73 (guide 1 CCCGTTGGAAGACTGAGTGCCC; guide 2 CCAAAACGTGGATTGGGGTTGT; guide RNA; listed as DNA, chemistry not fully specified)”, for which the “Excision efficiency by ddPCR (Vehicle)” value was 46.13.
On to “SluU10 + SluD83 (guide 1 CCCGTTGGAAGACTGAGTGCCC; guide 2 GTGGGGACAGACAATAAATACC; guide RNA; listed as DNA, chemistry not fully specified)”, for which the “Excision efficiency by ddPCR (Vehicle)” value amounted to 47.63.
On to “SluU10 + SluD100 (guide 1 CCCGTTGGAAGACTGAGTGCCC; guide 2 GTCCAGAGCTTTGGGCAGATGG; guide RNA; listed as DNA, chemistry not fully specified)”, for which the “Excision efficiency by ddPCR (Vehicle)” value amounted to 44.65.
Still for that read-out and setting: for “SluU21 + SluD06 (guide 1 GCTCGGAGCGGTTGTGAACTGG; guide 2 CCAGGCTGAGGCCCTGACGTGG; guide RNA; listed as DNA, chemistry not fully specified)” the value was 46.6; for “SluU21 + SluD14 (guide 1 GCTCGGAGCGGTTGTGAACTGG; guide 2 ATGGGCAAACTGCAGGCCTGGG; guide RNA; listed as DNA, chemistry not fully specified)”, 54.02; for “SluU21 + SluD18 (guide 1 GCTCGGAGCGGTTGTGAACTGG; guide 2 TGGAGGATGGAACACGGACGGC; guide RNA; listed as DNA, chemistry not fully specified)”, 45.61.
The same measure, in the same setting: the figure for “SluU21 + SluD32 (guide 1 GCTCGGAGCGGTTGTGAACTGG; guide 2 CTTGTGCATGACGCCCTGCTCT; guide RNA; listed as DNA, chemistry not fully specified)” is 41.94; for “SluU21 + SluD34 (guide 1 GCTCGGAGCGGTTGTGAACTGG; guide 2 CGCGCCAGACGCTCCCCAGAGC; guide RNA; listed as DNA, chemistry not fully specified)” it is 42.16.
